Measured values reported in publication PMC6716773 (Journal of Medicinal Chemistry, 2018).

What was measured:
MAO-B = conditions: read-out: MAO-B IC50; cited from earlier work
A2AAR = conditions: read-out: A2AAR Ki; cited from earlier work
human recombinant MAO-B = molecular target: T1, human recombinant MAO-B (Homo sapiens, UniProt P27338); assay: MAO-B enzyme assay; type: biochemical; conditions: Triton X-100, 0.01%; colloidal aggregation control
T1 sequence (P27338 1-520): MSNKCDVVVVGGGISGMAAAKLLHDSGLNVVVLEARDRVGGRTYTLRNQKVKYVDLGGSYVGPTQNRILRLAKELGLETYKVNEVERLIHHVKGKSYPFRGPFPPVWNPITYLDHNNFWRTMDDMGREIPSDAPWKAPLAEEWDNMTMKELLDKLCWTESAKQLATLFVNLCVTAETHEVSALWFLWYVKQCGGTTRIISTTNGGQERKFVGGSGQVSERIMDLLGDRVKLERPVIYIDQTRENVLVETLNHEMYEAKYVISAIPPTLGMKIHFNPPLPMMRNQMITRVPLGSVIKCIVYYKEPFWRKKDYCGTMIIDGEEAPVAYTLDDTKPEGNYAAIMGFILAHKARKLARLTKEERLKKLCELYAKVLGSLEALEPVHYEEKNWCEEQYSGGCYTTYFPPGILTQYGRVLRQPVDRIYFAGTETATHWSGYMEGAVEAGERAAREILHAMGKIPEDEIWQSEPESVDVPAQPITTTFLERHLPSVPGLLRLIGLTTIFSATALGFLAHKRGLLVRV

human A2A receptors = human A2A receptors (Homo sapiens, UniProt P29274); assay: Functional cAMP accumulation assay with NECA; type: cell-based; conditions: response to agonist NECA in presence of compound; CHO cells
[1] = molecular target: A2A adenosine receptor (A2AAR) (Homo sapiens, UniProt P29274); assay: A2AAR competition binding; conditions: for better A2AAR binding affinity than compound 1: relative to compound 1
[2] = system: differentiated dopaminergic neuronal-like SH-SY5Y cells; assay: Cell viability; type: cell-based, human; conditions: 20 µM 6-OHDA, 24 h; resazurin

Chain of A2A adenosine receptor (A2AAR) (P29274 whole entry): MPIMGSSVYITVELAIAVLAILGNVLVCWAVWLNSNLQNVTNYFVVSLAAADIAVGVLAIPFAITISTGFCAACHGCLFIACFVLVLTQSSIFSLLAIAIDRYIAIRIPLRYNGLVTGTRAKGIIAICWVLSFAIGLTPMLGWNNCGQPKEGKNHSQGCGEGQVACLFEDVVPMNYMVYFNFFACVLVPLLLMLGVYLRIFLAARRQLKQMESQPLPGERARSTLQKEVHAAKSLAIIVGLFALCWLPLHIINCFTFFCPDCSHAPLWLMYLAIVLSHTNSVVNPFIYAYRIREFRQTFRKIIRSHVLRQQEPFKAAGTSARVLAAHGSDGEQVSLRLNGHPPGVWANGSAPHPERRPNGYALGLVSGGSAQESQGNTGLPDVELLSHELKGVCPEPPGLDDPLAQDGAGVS
Chain of human A2A receptors (P29274 whole entry): as above

Compound: Cn1c(=O)c2c(nc(/C=C/c3cccc(Cl)c3)n2C)n(C)c1=O [CSC, 8-(3-chlorostyryl)caffeine]
- IC50 (MAO-B): 18 nM
- Ki (A2AAR): 38 nM

Compound: O=C(Nc1nc2ccccc2[nH]1)c1ccccc1 [Compound 1]
- change in MAO-B IC50 values in the presence of detergent (human recombinant MAO-B): no significant changes

Compound: O=C(Nc1nc2cccc(Cl)c2[nH]1)c1ccccc1 [Compound 1a]
- efficacy at the A2AAR in cAMP accumulation assay (human A2A receptors): antagonists
- better A2AAR binding affinity than compound 1 [1]: 27 fold

Compound: COc1cccc2nc(NC(=O)c3ccccc3)[nH]c12 [Compound 1b]
- better A2AAR binding affinity than compound 1 [1]: 5 fold

Compound: COc1cccc(COC(=O)c2nn(-c3ccccc3)nc2N)c1 [Compound 3]
- efficacy at the A2AAR in cAMP accumulation assay (human A2A receptors): antagonists

Compound: Cc1ccc(COC(=O)c2nn(-c3ccccc3)nc2N)cc1 [Compound 3a]
- change in MAO-B IC50 values in the presence of detergent (human recombinant MAO-B): no significant changes

Compound: Nc1nn(-c2ccccc2)nc1C(=O)O [Compound 3j]
- activity at the A2AAR (in words) [1]: inactive

Compound: COc1cccc(CO)c1 [Compound 3k]
- activity at the A2AAR (in words) [1]: inactive

Compound: NCCc1cc(O)c(O)cc1O [Compound 6-OHDA, 6-hydroxydopamine]
- reduction in cell viability [2]: 37 ± 1.3%
